Measurements: patent publication US12612403B2, “Nitrogen-containing heterocyclic derivative inhibitor, and preparation method therefor and use thereof” (SHANGHAI HANSOH BIOMEDICAL CO., LTD., priority 2024, dated 2026)

Experiments:
[1] = Pharmacokinetic determination in mice (PO 5 mg/kg, IV 1 mg/kg); format: in vivo, C57BL/6J mice; conditions: male, C57BL/6J, mouse, plasma, C57 mice, PO administration, 5 mpk; for AUC(0-inf): read-out: Area under the curve AUC0-∞; for half-life: read-out: Half-life t1/2 (converted); for MRT: read-out: Mean residence time MRT; for Cmax: read-out: Plasma concentration Cmax; for Tmax: read-out: Time to peak tmax
In short: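 Fasted male C57BL/6J mice (n=3 per route) dosed PO 5 mg/kg in 10% Solutol HS15 or IV 1 mg/kg in 5% DMSO/10% Solutol HS15/85% PBS. Orbital blood sampled 0.083 (IV) to 24 h; plasma measured by LC-MS/MS, parameters by WinNonlin.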

[2] = In vitro metabolic stability in human liver microsomes; format: in vitro ADME; conditions: pH 7.4
Protocol: 1. Experimental objective: The purpose of this experiment was to evaluate the metabolic stability of the compounds in phase I and partially phase II in mouse, rat and human liver microsomes, respectively.
2.1 Drug preparation: 10 mM stock solution of the compound of the present disclosure was prepared in DMSO (or other suitable solution) and stored in a −20° C. refrigerator for later use. The compound of the present disclosure was made in house.
2.2 Experimental steps • 1) Preparation of buffer: 4.01 mL of 1 M K2HPO4·3H2O (AR grade) and 0.99 mL of 1 M KH2PO4 (AR grade) were dissolved in ultrapure water and the volume was adjusted to 50 mL to prepare a phosphate buffer with a final concentration of 100 mM. • 2) Preparation of compound working solution: Preparation of compound working solution: 2 μL of the compound stock solution was added to 998 μL of phosphate buffer to a final concentration of 20 μM. According to the properties of the compound, the preparation proportions could be adjusted appropriately to adjust the final concentration. • 3) Preparation of liver microsome working solution: 156.3 μL of 20 mg/mL microsomes were diluted to 5 mL with 100 mM phosphate buffer, and the mixture was mixed well to reach a final concentration of 0.625 mg/mL. • 4) Preparation of NADPH and UDPGA: 33.3 mg of NADPH and 25.8 mg of UDPGA were weighed and added to 2 mL of 100 mM phosphate buffer to reach a final concentration of 20 mM. • 5) Preparation of pore-forming agent (Alamethicin): 1 mg of Alamethicin was weighed and added to 200 μL of methanol to prepare a 5 mg/mL solution. 10 μL of the solution was taken and added to 990 μL phosphate buffer (pH 7.4) to reach a final concentration of 50 μg/mL. • 6) Preparation of reaction stop solution: The internal standard was diluted with acetonitrile (or other suitable solution) to use as a stop solution and stored in a 2° C.-8° C. refrigerator. • 7) Incubation process: 400 μL of the prepared liver microsomes, 25 μL of the compound working solution (20 μM) and 25 μL of Alamethicin (50 μg/mL) were successively added to the 96-well plate, and the mixture was pre-incubated at 37° C. for 10 min. Then, 50 μL of prepared NADPH/UDPGA was added to start the reaction, and the mixture was incubated at 37° C. The total volume of the reaction system was 500 μL. The final contents of each component were as follows:
50 μL of samples were taken at 0, 5, 15, 30, 60 and 120 min, respectively, 200 μL of a cold stop solution containing the internal standard was added to stop the sample reaction, the mixture was centrifuged at 3500 rpm for 10 min, and the supernatant was taken and analyzed by LC-MS/MS.
Instruments: Shimadzu LC-20 AD; Chromatographic column: Phenomenex Gamin® C18 (50*4.6 mm, 5 μm particle size); mobile phase: A: 0.1% aqueous formic acid, B: acetonitrile; Elution gradient: 0.2-1.6 min, […], 3.0-3.1 min, 95% A to 5% A; Flow rate: 1.0 ml/min; Run time: 4.0 min; Injection volume: 5 μL.
Instruments: AP14000 liquid chromatography mass spectrometer, AB Sciex; Ion source: electrospray ionization source (ESI); Drying gas: N2, temperature 500° C.; Electrospray voltage: 5000 V; Detection mode: positive ion detection; Scanning mode: Reaction Monitoring (MRM) mode; Scanning time: 0.8401 s.
3. Data processing: The raw data were calculated according to the following formula: […]
The in vitro liver microsome intrinsic clearance rate (CLint) and liver intrinsic clearance rate (CLint,liver) were calculated by Ke.

Structure (SMILES) | AUC(0-inf) [1] | half-life [1] | MRT [1] | Cmax [1] | Tmax [1] | half-life at 1 µM [2] | microsomal CLint at 1 µM [2]
O=c1nc(O)ccn1-c1ccc(N[C@H]2CC[C@H](Nc3nc4cc(C(F)(F)F)ccn4n3)C2)nc1 [Example 78, 4-hydroxy-1-(6-(((1S,3S)-3-((7-(trifluoromethyl)-[1,2,4]triazolo[1,5-a]pyridin-2-yl)amino)cyclopentyl)amino)pyridin-3-yl)pyrimidin-2(1H)-one] | 14000 ng·h/mL | 3.6 h | 1.7 h | 7860 ng/mL | 0.25 h | 13.2 h | 1.75 µL/min/mg
O=C1c2ncccc2CN1c1cnc(N[C@H]2CC[C@H](Nc3nc4cc(OC(F)F)ccn4n3)C2)c(F)c1 [Example 151] | 11300 ng·h/mL | 1.4 h | 2.3 h | 3460 ng/mL | 0.5 h | 11.8 h | 1.9 µL/min/mg
O=c1nc(O)ccn1-c1cnc(N[C@H]2CC[C@H](Nc3nc4cc(C(F)(F)F)ccn4n3)C2)c(F)c1 [Example 183] | 26700 ng·h/mL | 3 h | 3.5 h | 6130 ng/mL | 0.7 h | 23 h | 1 µL/min/mg
